Patent US12157741B2, “Macrocyclic inhibitors of DYRK1A” (DANA-FARBER CANCER INSTITUTE, INC., priority 2018, dated 2024)
Read-outs that look alike come from different tables or passages of the source.

What was measured:
[1] = target: various enzymes (Homo sapiens, UniProt Q13705); details: ACVR2B; 1 uM
Protocol: (§1) Ambit profiling from Eurofins (formerly Discoverx) was conducted in accordance with the manufacturer's instructions.

[2] = target: various enzymes (Homo sapiens, UniProt O60674); details: JAK2(JH1domain-catalytic); 1 uM
Protocol: as §1

[3] = target: various enzymes (Homo sapiens, UniProt Q9Y2K2); details: QSK; 1 uM
Protocol: as §1

[4] = target: various enzymes (Homo sapiens, UniProt Q16584); details: MLK3; 1 uM
various enzymes (Homo sapiens, UniProt Q16584), sequence (Q16584 whole entry): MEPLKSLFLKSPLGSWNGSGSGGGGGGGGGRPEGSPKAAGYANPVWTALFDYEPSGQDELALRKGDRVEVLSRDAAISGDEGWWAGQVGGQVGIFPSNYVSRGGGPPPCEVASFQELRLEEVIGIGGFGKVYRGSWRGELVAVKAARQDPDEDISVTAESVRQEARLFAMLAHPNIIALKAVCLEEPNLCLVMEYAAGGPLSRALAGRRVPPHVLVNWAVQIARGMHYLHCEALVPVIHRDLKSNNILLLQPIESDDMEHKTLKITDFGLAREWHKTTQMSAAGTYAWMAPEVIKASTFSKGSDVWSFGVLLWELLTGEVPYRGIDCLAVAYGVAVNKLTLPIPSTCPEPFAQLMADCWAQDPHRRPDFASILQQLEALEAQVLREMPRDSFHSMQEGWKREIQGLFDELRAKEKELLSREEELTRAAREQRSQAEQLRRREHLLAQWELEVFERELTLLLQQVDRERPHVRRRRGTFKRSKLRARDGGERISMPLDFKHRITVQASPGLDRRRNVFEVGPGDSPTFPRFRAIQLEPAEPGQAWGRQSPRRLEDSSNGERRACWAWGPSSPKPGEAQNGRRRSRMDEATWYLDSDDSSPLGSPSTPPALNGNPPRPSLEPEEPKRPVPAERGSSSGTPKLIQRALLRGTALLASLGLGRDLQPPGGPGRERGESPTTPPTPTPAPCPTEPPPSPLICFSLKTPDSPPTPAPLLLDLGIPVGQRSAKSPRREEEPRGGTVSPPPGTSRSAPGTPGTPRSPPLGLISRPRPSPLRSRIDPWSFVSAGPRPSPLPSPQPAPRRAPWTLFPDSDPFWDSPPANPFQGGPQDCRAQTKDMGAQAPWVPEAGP
Protocol: as §1

[5] = target: T1, various enzymes (Homo sapiens, UniProt Q08881); details: ITK; 1 uM
T1 sequence (Q08881 1-620): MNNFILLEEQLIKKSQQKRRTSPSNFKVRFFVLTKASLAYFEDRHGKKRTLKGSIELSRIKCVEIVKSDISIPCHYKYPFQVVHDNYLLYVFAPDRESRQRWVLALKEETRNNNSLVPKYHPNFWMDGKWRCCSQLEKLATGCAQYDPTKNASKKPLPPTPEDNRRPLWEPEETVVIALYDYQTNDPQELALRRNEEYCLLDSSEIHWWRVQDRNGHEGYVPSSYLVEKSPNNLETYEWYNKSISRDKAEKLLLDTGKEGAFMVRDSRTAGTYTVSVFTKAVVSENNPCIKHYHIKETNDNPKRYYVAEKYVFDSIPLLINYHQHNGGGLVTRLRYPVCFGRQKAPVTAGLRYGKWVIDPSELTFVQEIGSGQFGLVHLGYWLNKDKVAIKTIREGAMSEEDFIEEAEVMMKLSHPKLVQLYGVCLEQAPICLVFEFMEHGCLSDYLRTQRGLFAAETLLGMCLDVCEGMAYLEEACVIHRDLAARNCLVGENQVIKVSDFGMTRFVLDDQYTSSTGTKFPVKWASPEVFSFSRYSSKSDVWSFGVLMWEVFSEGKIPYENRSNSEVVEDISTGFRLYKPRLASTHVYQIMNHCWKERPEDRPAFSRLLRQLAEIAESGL
Protocol: as §1

[6] = target: various enzymes (Homo sapiens, UniProt Q9Y6M4); details: CSNK1G3; 1 uM
various enzymes (Homo sapiens, UniProt Q9Y6M4), sequence (Q9Y6M4 whole entry): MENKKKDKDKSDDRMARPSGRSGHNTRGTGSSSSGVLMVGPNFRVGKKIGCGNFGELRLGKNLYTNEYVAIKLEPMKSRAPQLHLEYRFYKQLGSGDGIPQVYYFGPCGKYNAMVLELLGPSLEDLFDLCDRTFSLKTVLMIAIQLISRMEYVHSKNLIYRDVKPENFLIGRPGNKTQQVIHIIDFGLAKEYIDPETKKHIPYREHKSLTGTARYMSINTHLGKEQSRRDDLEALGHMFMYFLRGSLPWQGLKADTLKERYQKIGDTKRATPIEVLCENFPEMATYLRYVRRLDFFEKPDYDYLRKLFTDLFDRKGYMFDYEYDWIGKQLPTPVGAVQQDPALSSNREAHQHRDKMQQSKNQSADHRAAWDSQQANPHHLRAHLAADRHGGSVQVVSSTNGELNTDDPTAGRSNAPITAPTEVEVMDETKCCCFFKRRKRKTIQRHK
Protocol: as §1

[7] = target: various enzymes (Homo sapiens, UniProt P08581, Y1235D)
Protocol: as §1

[8] = target: various enzymes (Homo sapiens, UniProt P54756); details: EPHA5; 1 uM
various enzymes (Homo sapiens, UniProt P54756), sequence (P54756 25-1037): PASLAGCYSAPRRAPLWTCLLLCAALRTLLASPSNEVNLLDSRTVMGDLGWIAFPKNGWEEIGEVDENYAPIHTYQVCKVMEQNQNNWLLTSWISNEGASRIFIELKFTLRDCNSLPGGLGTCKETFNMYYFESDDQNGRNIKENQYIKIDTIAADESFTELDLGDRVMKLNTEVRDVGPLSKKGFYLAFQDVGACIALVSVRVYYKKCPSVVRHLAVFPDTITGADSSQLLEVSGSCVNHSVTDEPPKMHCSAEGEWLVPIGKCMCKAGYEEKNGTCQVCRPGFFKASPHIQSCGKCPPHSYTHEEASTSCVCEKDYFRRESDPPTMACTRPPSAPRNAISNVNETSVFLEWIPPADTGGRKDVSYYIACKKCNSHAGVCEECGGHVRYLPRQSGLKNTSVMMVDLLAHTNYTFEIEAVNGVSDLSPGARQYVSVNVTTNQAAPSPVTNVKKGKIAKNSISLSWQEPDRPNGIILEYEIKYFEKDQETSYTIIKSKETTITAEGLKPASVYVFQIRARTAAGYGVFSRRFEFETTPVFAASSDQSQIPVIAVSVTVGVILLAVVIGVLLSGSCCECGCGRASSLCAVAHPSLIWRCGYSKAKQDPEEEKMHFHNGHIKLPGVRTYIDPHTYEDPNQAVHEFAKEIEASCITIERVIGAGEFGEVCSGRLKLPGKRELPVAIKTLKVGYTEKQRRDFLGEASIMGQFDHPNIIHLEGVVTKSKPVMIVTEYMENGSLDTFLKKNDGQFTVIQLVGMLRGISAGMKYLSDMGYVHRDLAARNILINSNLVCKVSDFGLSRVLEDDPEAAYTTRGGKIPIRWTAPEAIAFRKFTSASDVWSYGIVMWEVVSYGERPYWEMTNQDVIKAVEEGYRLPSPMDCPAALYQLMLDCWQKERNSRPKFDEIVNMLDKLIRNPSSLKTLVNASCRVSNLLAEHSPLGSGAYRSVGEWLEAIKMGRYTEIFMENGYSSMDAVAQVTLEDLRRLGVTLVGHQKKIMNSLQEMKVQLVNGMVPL
Protocol: as §1

[9] = target: various enzymes (Homo sapiens, UniProt P00533, DEL752-759); details: EGFR(S752-I759del); 1 uM
Protocol: as §1

[10] = target: various enzymes (Homo sapiens, UniProt Q9HCP0); details: CSNK1G1; 1 uM
various enzymes (Homo sapiens, UniProt Q9HCP0), sequence (Q9HCP0 whole entry): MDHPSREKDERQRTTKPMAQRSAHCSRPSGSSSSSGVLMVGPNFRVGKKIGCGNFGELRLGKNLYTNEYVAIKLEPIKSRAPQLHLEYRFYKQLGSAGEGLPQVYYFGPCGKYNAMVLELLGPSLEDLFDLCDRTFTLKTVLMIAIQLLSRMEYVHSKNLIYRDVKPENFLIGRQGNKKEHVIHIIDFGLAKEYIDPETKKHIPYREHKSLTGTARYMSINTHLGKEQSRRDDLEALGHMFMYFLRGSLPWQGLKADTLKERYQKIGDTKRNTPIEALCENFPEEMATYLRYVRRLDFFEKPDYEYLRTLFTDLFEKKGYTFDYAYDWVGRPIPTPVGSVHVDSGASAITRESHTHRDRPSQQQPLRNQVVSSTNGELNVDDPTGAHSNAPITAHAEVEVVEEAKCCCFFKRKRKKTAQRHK
Protocol: as §1

[11] = target: various enzymes (Homo sapiens, UniProt P00533, L858R)
Protocol: as §1

[12] = target: various enzymes (Homo sapiens, UniProt P08581, M1250T)
Protocol: as §1

[13] = target: various enzymes (Homo sapiens, UniProt O15075); details: DCAMKL1; 1 uM
Protocol: as §1

[14] = target: various enzymes (Homo sapiens, UniProt P45983); details: JNK1; 1 uM
various enzymes (Homo sapiens, UniProt P45983), sequence (P45983 whole entry): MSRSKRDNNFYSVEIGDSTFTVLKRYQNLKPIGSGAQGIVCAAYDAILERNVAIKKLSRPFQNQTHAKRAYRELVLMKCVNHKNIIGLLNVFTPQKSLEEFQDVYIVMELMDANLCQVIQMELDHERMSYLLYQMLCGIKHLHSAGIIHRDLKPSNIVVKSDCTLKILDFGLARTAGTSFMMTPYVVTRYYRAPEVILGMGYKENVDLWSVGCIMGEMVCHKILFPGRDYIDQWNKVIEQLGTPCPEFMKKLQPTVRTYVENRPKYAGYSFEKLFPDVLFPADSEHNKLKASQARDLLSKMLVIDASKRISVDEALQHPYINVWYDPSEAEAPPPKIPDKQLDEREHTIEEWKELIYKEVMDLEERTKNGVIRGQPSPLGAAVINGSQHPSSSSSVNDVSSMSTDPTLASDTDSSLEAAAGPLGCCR
Protocol: as §1

[15] = target: T2, various enzymes (Homo sapiens, UniProt P36888); format: binding; parameters: other: FLT3(ITD); 1 uM; other: compound 1 uM; details: compound 1 uM
T2 sequence (P36888 1-993): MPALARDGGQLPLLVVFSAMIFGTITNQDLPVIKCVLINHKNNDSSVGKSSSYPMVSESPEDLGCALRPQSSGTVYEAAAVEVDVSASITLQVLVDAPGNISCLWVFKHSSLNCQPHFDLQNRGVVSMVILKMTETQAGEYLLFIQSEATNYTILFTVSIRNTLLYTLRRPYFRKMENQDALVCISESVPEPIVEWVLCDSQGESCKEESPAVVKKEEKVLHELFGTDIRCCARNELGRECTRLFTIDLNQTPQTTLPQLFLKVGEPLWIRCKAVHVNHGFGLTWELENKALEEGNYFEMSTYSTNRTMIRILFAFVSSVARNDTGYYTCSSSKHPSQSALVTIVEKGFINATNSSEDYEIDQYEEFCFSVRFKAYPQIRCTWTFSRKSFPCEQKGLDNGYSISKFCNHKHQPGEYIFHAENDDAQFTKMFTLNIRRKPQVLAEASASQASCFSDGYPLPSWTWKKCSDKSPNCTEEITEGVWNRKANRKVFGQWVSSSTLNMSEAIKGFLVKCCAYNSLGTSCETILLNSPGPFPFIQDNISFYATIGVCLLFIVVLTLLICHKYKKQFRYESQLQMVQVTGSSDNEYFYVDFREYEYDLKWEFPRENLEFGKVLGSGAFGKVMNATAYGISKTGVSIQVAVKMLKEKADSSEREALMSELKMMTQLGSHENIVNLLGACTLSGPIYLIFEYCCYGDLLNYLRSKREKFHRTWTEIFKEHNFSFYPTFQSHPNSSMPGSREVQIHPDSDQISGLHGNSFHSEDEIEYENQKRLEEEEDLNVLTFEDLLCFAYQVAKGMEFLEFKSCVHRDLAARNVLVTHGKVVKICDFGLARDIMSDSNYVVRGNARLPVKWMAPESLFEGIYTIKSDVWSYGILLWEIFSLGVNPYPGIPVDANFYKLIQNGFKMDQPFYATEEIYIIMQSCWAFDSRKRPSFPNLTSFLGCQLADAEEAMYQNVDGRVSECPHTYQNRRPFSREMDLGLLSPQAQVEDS
Protocol: Ambit profiling was conducted in accordance with the manufacturer's instructions.

various enzymes (Homo sapiens, UniProt Q9Y2K2), sequence (Q9Y2K2 whole entry): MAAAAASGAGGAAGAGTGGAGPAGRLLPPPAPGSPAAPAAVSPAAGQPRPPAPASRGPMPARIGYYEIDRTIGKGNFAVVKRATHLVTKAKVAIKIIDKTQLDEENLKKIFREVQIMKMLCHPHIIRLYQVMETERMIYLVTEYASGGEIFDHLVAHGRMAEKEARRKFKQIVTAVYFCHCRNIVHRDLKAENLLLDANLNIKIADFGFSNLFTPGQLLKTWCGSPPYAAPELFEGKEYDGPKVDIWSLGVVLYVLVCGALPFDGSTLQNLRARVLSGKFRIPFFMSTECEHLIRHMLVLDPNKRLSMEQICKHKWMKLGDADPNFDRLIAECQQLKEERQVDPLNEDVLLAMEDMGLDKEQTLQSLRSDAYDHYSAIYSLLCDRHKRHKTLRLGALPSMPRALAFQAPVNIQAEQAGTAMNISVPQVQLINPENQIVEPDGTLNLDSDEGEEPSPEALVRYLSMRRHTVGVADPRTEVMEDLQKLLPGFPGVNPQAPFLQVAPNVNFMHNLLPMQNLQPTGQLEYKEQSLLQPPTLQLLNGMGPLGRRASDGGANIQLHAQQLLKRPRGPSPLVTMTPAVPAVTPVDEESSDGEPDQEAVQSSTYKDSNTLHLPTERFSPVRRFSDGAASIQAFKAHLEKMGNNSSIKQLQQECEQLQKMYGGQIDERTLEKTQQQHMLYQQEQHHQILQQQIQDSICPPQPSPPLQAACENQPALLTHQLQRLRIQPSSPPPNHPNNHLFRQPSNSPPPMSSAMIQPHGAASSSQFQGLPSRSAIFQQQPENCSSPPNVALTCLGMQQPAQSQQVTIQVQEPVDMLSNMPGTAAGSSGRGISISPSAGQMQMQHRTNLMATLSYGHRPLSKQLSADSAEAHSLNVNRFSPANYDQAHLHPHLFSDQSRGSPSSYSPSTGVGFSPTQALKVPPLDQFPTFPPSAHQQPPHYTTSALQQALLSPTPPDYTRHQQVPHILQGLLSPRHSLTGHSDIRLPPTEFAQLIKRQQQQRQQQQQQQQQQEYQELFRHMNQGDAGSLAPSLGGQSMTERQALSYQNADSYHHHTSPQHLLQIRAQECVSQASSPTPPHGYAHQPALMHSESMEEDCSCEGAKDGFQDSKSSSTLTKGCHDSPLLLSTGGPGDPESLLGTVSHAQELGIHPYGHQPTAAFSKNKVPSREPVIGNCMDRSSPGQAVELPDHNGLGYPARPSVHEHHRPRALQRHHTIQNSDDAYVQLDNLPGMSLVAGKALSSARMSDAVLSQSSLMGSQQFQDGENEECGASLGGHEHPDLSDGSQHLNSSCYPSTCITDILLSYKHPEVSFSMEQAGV
various enzymes (Homo sapiens, UniProt Q13705), sequence (Q13705 19-512): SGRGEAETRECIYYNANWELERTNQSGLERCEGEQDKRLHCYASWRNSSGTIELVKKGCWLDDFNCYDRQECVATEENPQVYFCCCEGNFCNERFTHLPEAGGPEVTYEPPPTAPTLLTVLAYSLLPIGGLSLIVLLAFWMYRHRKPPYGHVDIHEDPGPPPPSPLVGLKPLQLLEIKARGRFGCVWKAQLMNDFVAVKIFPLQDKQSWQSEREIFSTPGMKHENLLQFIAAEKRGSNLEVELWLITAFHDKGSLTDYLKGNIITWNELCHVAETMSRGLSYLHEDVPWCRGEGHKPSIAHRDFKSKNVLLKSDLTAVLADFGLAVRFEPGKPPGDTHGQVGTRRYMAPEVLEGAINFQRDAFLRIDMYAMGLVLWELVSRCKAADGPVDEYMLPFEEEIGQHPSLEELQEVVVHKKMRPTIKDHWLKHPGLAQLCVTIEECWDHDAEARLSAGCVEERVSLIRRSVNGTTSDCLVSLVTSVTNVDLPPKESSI

CN1Cc2nn(C)cc2-c2cnc3[nH]cc(c3c2)-c2cnn(c2)CCCC1=O [Compound 41, (Z)-31,5-dimethyl-11H,21H,31H-5-aza-2(3,5)-pyrrolo[2,3-b]pyridina-1(4,1),3(4,3)-dipyrazolacyclononaphan-6-one]
Ambit profiling [1]: 65 | Ambit profiling [2]: 0.5 | Ambit profiling [3]: 89 | Ambit profiling [4]: 69 | Ambit profiling [5]: 65 | Ambit profiling [6]: 100 | Ambit profiling ([7]; MET(Y12350), 1 uM): 44 | Ambit profiling [8]: 58 | Ambit profiling [9]: 100 | Ambit profiling [10]: 84 | Ambit profiling ([11]; EGFR(L856R), 1 uM): 87 | Ambit profiling ([12]; MET(M1250T), 1 uM): 20 | Ambit profiling [13]: 65 | Ambit profiling [14]: 0.1

CC(C)N1Cc2nn(C)cc2-c2cnc3[nH]cc(c3c2)-c2cn(nc2C(F)(F)F)CCCC1=O [Compound 45, (Z)-5-isopropyl-31-methyl-13-(trifluoromethyl)-11H,21H,31H-5-aza-2(3,5)-pyrrolo[2,3-b]pyridina-1(4,1),3(4,3)-dipyrazolacyclononaphan-6-one]
Ambit profiling: FLT3(ITD) [15]: 0.3

CN1Cc2nn(C)c(C#N)c2-c2cnc3[nH]cc(c3c2)-c2cn(nc2C(F)(F)F)CCCC1=O [Compound 48, (Z)-31,5-dimethyl-6-oxo-13-(trifluoromethyl)-11H,21H,31H-5-aza-2(3,5)-pyrrolo[2,3-b]pyridina-1(4,1),3(4,3)-dipyrazolacyclononaphane-35-carbonitrile]
Ambit profiling [1]: 98 | Ambit profiling [2]: 81 | Ambit profiling [3]: 100 | Ambit profiling [4]: 80 | Ambit profiling [5]: 100 | Ambit profiling [6]: 98 | Ambit profiling [7]: 51 | Ambit profiling [8]: 97 | Ambit profiling [9]: 77 | Ambit profiling [10]: 100 | Ambit profiling [11]: 63 | Ambit profiling [12]: 75 | Ambit profiling [13]: 92 | Ambit profiling [14]: 20

COc1c2c(nn1C)CN(C(C)C)C(=O)CCCn1cc(c(C(F)(F)F)n1)-c1c[nH]c3ncc-2cc13 [Compound 50, (Z)-5-isopropyl-35-methoxy-31-methyl-13-(trifluoromethyl)-11H,21H,31H-5-aza-2(3,5)-pyrrolo[2,3-b]pyridina-1(4,1),3(4,3)-dipyrazolacyclononaphan-6-one]
Ambit profiling: FLT3(ITD) [15]: 0.35
